Measured values taken from patent US7318924B2, “Antibodies against cancer” (The Austin Research Institute, priority 2001, dated 2008).
Converted amounts (≈) assume the structure as drawn.

Tests used:
[1] = tested on: p38; test: p38 activation in LS174T cells; type: cell-based, human; conditions: 3 hours; C3 5, 10 μg/ml; Cisplatin 25, 50 μg/ml
Description: (§1) P38 was not affected by C3 but was activated by Cisplatin.
The stress related p38 pathway was also investigated in LS174T cells following anti-Cripto-1 Mab treatment. p38 activation occurred following 48 hours of Mab exposure, when the level of activated JNK declined. p38 was further activated at 72 hours when elevated JNK returned to basal level (FIG. 8D). […] The potentiation of Cisplatin cytotoxicity by anti-Cripto-1 Mabs (FIG. 1) is accompanied by an increase in JNK phosphorylation (FIG. 8A) and p38 MAPK (FIG. 8B).

[2] = tested on: JNK/SAPK; test: JNK activation in LS174T cells; type: cell-based, human; conditions: 3 hours; C3 5, 10 μg/ml; Cisplatin 25, 50 μg/ml
Description: as §1
The role of JNK and p38 activation in anti-Cripto-1 mediated apoptosis was investigated in colon cancer LS17T cell line using different concentration of Mabs and various times of incubation. In particular, JNK/SPAK was activated in LS174T cells following 3 hours incubation with anti-Cripto-1 Mab in a dose dependent manner (FIG. 8A). JNK activation was at the highest level after 24 hours of exposure (FIGS. 8B and 8D), and declined within 48 h, returning to basal level at 72 hours of incubation (FIG. 8D) indicating JNK activation by anti-Cripto1 antibodies is time dependent

[3] = tested on: CEM/A7; test: Growth of leukaemia cell line CEM/A7; type: cell-based, human
Source text: (§2) Therefore, C4 can overcome drug resistance which is a common problem in acute leukemia.

[4] = tested on: mouse thyoma E3 cells; test: Growth of mouse thymoma E3 cells; type: cell-based; conditions: read-out: Ic50 concentration
Source text: as §2

[5] = tested on: CEM/A7R; test: Growth of drug resistant leukaemia cell line CEM/A7R; type: cell-based, human
Source text: Thus, this cell line is normally resistant to a variety of naturally derived chemotherapeutic agents.
as §2

IC50 [4] [µg/mL] | Compound | p38 activation [1] | JNK activation [2] | resistance to Epirubicin compared to E3 [3] | resistance to Epirubicin compared to E3 [5] [fold]
– | N.N.[Cl][Pt][Cl] [Cisplatin] | activated | induced | – | –
0.02 (≈ 0.0368 µM) | COc1cccc2c1C(=O)c1c(O)c3c(c(O)c1C2=O)C[C@@](O)(C(=O)CO)C[C@@H]3O[C@H]1C[C@H](N)[C@@H](O)[C@H](C)O1 [Epirubicin] | – | – | around 80 fold | ~40
